Reference: patent publication US10295552B2, “Method for diagnosis of primary hyperaldosteronism” (ATTOQUANT D[…], priority 2013, dated 2019)

Columns and labels:
[1] = system: aldosterone-to-angiotensin II ratio (AA2R); assay: Aldosterone-to-angiotensin II ratio (AA2R) before and 4 h after a single dose of a RAS blocker; format: in vivo, human; details: 5 healthy volunteers, 4 h post administration vs predose, heparin plasma equilibrated 60 min at 37° C.
Protocol: (§1) FIG. 5: Comparison of the impact of RAS blocker administration on the ARR (upper panel) and the AA2R (lower panel). Plasma samples were collected from healthy volunteers before (Predose) and 4 h post administration of a single dose of an ACE inhibitor (left), renin inhibitor (middle) or angiotensin receptor blocker (ARB, right). Plasma aldosterone concentration, equilibrium angiotensin II concentration and active renin concentration were measured and the ARR and the AA2R was calculated for each sample. For calculation of the ARR, aldosterone concentrations in ng/L were divided by the plasma active renin concentration in ng/L. For calculation of the AA2R, aldosterone concentrations in pmol/L were divided by Ang II concentrations in pmol/L. Mean values of 5 healthy volunteers+/−SEM are shown in the graphs.
Single doses of three different anti-hypertensive drugs were administered to 5 healthy volunteers on 3 different treatment days separated by one week. […]
Equilibrium Ang II levels were determined by quantification of the steady-state angiotensin peptide levels in equilibrated heparin plasma samples. […] Following equilibration, plasma angiotensin peptide levels were stabilized by the addition of protease inhibitors and equilibrium peptide levels were subsequently quantified by mass spectrometry. […] Two different mass transitions were measured per analyte and standard and the concentrations were calculated by relating endogenous signals to internal standard signals under consideration of the corresponding response factors determined by calibration curves in human blank plasma.
StSable isotope-labeled aldosterone was added to the stabilized plasma samples at a concentration of 500 pg/ml for internal standardization. […] Two different mass transitions were measured per analyte and standard and the concentrations were calculated by relating endogenous signals to internal standard signals under consideration of the corresponding response factors determined by calibration curves in human blank plasma.

[2] = system: aldosterone-to-renin ratio (ARR); assay: Aldosterone-to-renin ratio (ARR) before and 4 h after a single dose of a RAS blocker; format: in vivo, human; details: 5 healthy volunteers, 4 h post administration vs predose
Protocol: as §1
Single doses of three different anti-hypertensive drugs were administered to 5 healthy volunteers on 3 different treatment days separated by one week. 4 h following administration of a single dose of 10 mg Enalapril (ACE-Inhibitor), 50 mg Losartan (ARB) or 150 mg Aliskiren (Renin-Inhibitor), heparin blood was collected by venous puncture and plasma was separated by centrifugation. Samples were frozen at −80° C. till analysis.
StSable isotope-labeled aldosterone was added to the stabilized plasma samples at a concentration of 500 pg/ml for internal standardization. Following C18-based solid-phase-extraction, samples were subjected to mass spectrometry analysis using a reversed-phase analytical column (Acquity UPLC® C18, Waters) operating in line with a XEVO TQ-S triple quadrupole mass spectrometer (Waters) in MRM mode. Two different mass transitions were measured per analyte and standard and the concentrations were calculated by relating endogenous signals to internal standard signals under consideration of the corresponding response factors determined by calibration curves in human blank plasma.

COCCCOc1cc(C[C@@H](C[C@H](N)[C@@H](O)C[C@H](C(=O)NCC(C)(C)C(N)=O)C(C)C)C(C)C)ccc1OC [Aliskiren]
change in the AA2R (aldosterone pmol/L divided by equilibrium Ang II pmol/L) [1]: did not significantly affect | change in the ARR (aldosterone ng/L divided by plasma active renin concentration ng/L) [2]: highly significant and profound decrease

CCOC(=O)[C@H](CCc1ccccc1)N[C@@H](C)C(=O)N1CCC[C@H]1C(=O)O [Enalapril]
change in the AA2R (aldosterone pmol/L divided by equilibrium Ang II pmol/L) [1]: did not significantly affect | change in the ARR (aldosterone ng/L divided by plasma active renin concentration ng/L) [2]: highly significant and profound decrease

CCCCc1nc(Cl)c(CO)n1Cc1ccc(-c2ccccc2-c2nn[nH]n2)cc1 [Losartan]
change in the AA2R (aldosterone pmol/L divided by equilibrium Ang II pmol/L) [1]: significant decrease | change in the ARR (aldosterone ng/L divided by plasma active renin concentration ng/L) [2]: highly significant and profound decrease
